Laboratory results as given in patent publication US10570179B2, “Substituted urea depsipeptide analogs as activators of the CLPP endopeptidase” (priority 2016, dated 2020).
In brackets after ≈: the same amount, converted by molar mass. Like-named read-outs stand apart in the source and are kept apart here. Numbered stars: 1 amine (or outer) side, 2 acyl side, 3 side chain; on linkers, the order of the positions; unused ones are H or OH. Bridge positions count the residues as written; N and C are the ends. Square brackets hold non-standard residues; d marks the D form. Peptide text beside a SMILES is read from it. * marks the point of attachment. Phe(3-Me) = Cc1cccc(C[C@H](N)C(=O)O)c1; Pro(4S-Me) = C[C@@H]1CN[C@H](C(=O)O)C1; X4 = O=C1CN([*:1])[C@H](C(=O)[*:2])CN1; Pro(4R-Me) = C[C@H]1CN[C@H](C(=O)O)C1; Hyp = O=C(O)[C@@H]1C[C@@H](O)CN1; NH(4-Cl-phenyl) = Clc1ccc(N*)cc1; aThr = C[C@H](O)[C@H](N)C(=O)O; Pip = O=C(O)[C@@H]1CCCCN1; CO = O=C([*:1])[*:2]; X2 = Fc1cc(N*)ccc1Cl

What was measured:
S. aureus ATCC 29213 = assay: Minimal inhibitory concentration, microbroth dilution; assay type: cell-based; settings: Staphylococcus aureus
Description: (§1) Minimal inhibitory concentrations (“MICs”) were determined using the microbroth dilution method according to Clinical Laboratory Standards Institute (CLSI; National, C.F. C. L. S., Methods for Dilution Antimicrobial Susceptibility Tests for Bacteria Grow aerobically-Seventh Edition: Approved Standard M7-A7, CLSI, Wayne, Pa., USA, 2008) and were read by visual inspection. Two fold serial dilutions of test compound in 100 μL of the appropriate broth media were first prepared in 96-well round bottom microtiter plates (Nalgene Nunc International, Rochester, N.Y., USA). An equivalent volume (100 μL) of bacterial broth inocula containing approximately 10^5 bacterial cfu/mL was added to each well to give final concentrations of test compound starting at 200 μM. The plates were then incubated aerobically at 37° C. All strains were incubated overnight. After incubations, in all cases the MIC was recorded as the lowest concentration of drug that prevented bacterial growth. The bacterial strains for which MIC was determined as described in Table 4.

MRSA NRS70 = assay: as above; assay type: cell-based; settings: Staphylococcus aureus
Description: as §1

E. faecails = assay: as above; assay type: cell-based; settings: Enterococcus faecalis
Description: as §1

S. aureus USA 300 = assay: as above; assay type: cell-based; settings: Staphylococcus aureus
Description: as §1

S. aureus ΔClpP = assay: as above; assay type: cell-based, Staphylococcus aureus; settings: MIC; ClpP inactivated
Description: as §1

S. aureus ClpP (Sa-ClpP) = biological target: T1, S. aureus ClpP (Sa-ClpP) (Staphylococcus aureus, UniProt Q2G036); assay: Casein-BODIPY digestion assay (ClpP activation); assay type: biochemical
T1 construct: made in house; host or cells: E. coli BL21 (DE3)
Description: The compounds were assayed in a casein digestion assay in order to determine their effect on ClpP activation. Briefly, the assay was carried out using S. aureus ClpP (“Sa-ClpP”) overexpressed in E. coli BL21 (DE3) and purified in a two-step process. Purity of the protein was assessed through SDS PAGE analysis. EC50 evaluations were conducted in triplicate in a 20 μl assay format using a method adapted from Maurizi et al. (Methods Enzymol. (1994) 244:314-331). Each well contained 10 μM saClpP, 25 μg/ml BODIPY FL casein (Invitrogen Corporation, San Diego, Calif.), and test compound in concentrations ranging between 0-1000 μM in assay buffer (50 mM Tris pH 8, 200 mM KCl, and 1 mM TCEP). The reaction took place at 37° C. Fluorescence (excitation 485 nm; emission 528 nm) was measured in five minute intervals over a 45 min period using a BioTek HT fluorescence microplate reader (BioTek Instruments, Inc., Winooski, Vt.). Velocity of each reaction was calculated and data was fit to a dose response curve using GraphPad Prism® software (GraphPad Software, Inc., La Jolla, Calif.). EC50 is the effective concentration of compound which causes 50% activation of S. aureus ClpP in the foregoing BODIPY FL casein assay.
Alternatively, the assay was carried out using EnzCheck Protease Assay (Molecular Probes, Catalog # E6638). The assay was performed in black 384 well, flat bottom, low volume plates (Greiner Bio-One, Monroe, N.C., catalog #784076). 10 μL of Tris.HCl buffer, pH 8.0 with 0.01% Triton X-100 was pipetted into each well using a Well-Mate (Thermo Scientific, Waltham, Mass.). 0.4 μL test compounds or controls (2% DMSO v/v) were added to each well using a Biomek FX liquid handling robot (Beckman Coulter, Indianapolis, Ind.). After addition of test compounds and controls, 10 μL of master mix containing 2 μM Sa-ClpP and 2 μM substrate (Bodipy-FL labeled casein) in Tris.HCl buffer, pH 8.0 with 0.01% (v/v) Triton X-100, was pipetted into each well. All assays were performed in triplicate, under linear velocity conditions. Increase in fluorescent signal following activation of Sa-ClpP by test compounds and controls was measured over time period of 30 mins using filters with excitation at 485±15 nm and emission at 520±25 nm on a PHERAstar FS Multilabel reader (BMG, Cary, N.C.). Instrument gains and enzyme linear velocity conditions were determined and validated using ADEP4, a known Sa-ClpP activator. Data analysis was done by measuring rate of casein degradation over time (slopes). Computed degradation rates (slopes) were normalized to positive (ADEP4) or negative (DMSO) controls. Using nonlinear regression curve fitting EC50 values and % activation were determined using the equation “log [agonist] vs. Response-variable slope (four parameters)-symmetrical” in the program Prism 6 (GraphPad Software, La Jolla, Calif. USA, www.graphpad.com).

[1] = ATCC29213, read-out: Minimal Inhibitory Concentrations (μM) S. aureus ATCC 29213, MIC
[2] = read-out: Minimal Inhibitory Concentrations (μM) MRSA NRS70, MIC
[3] = read-out: Minimal Inhibitory Concentrations (μM) E. faecails, MIC
[4] = USA300, read-out: Minimal Inhibitory Concentrations (μM) S. aureus USA 300, MIC

T1 sequence (Q2G036 whole entry): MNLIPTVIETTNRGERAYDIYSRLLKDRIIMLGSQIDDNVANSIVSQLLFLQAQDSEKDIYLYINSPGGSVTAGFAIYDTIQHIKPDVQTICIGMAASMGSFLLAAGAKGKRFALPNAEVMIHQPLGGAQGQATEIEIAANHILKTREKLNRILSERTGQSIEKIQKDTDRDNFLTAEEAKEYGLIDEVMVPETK

Cc1cccc(C[C@H](NC(=O)Nc2ccc(Cl)cc2)C(=O)N[C@H]2COC(=O)[C@@H]3C[C@H](C)CN3C(=O)[C@H](C)NC(=O)[C@@H]3CCCCN3C(=O)[C@@H]3CCCN3C2=O)c1 [Compound 53, (S)-2-(3-(4-CHLOROPHENYL)UREIDO)-N-((2S,6S,8AS,14AS,20S,23AS)-2,6-DIMETHYL-5,8,14,19,23-PENTAOXOOCTADECAHYDRO-1H,5H,14H,19H-PYRIDO[2,1-I]DIPYRROLO[2,1-C:2′,1′-L][1]OXA[4,7,10,13]TETRAAZACYCLOHEXADECIN-20-YL)-3-(M-TOLYL)PROPANAMIDE]
MIC (S. aureus ATCC 29213; [1]): 1.25 µM (≈ 0.99 µg/mL)
MIC (MRSA NRS70; [2]): 1.25 µM (≈ 0.99 µg/mL)
MIC (E. faecails; [3]): 5 µM (≈ 3.96 µg/mL)
MIC (S. aureus USA 300; [4]): 2.5 µM (≈ 1.98 µg/mL)
Minimal Inhibitory Concentrations (μM) S. aureus ΔClpP (S. aureus ΔClpP): >20 µM
EC50 (S. aureus ClpP (Sa-ClpP)): 670 ± 300 nM

Cc1cccc(C[C@H](NC(=O)Nc2ccc(Cl)c(F)c2)C(=O)N[C@@H]2C(=O)N3C[C@H](O)C[C@H]3C(=O)N3CCCC[C@H]3C(=O)N[C@@H](C)C(=O)N3C[C@@H](C)C[C@H]3C(=O)O[C@H]2C)c1 [Compound 77, (S)-2-(3-(4-CHLORO-3-FLUOROPHENYL)UREIDO)-N-((2S,6S,8AS,14AS,16R,20S,21S,23AS)-16-HYDROXY-2,6,21-TRIMETHYL-5,8,14,19,23-PENTAOXOOCTADECAHYDRO-1H,5H,14H,19H-PYRIDO[2,1-I]DIPYRROLO[2,1-C:2′,1′-L][1]OXA[4,7,10,13]TETRAAZACYCLOHEXADECIN-20-YL)-3-(M-TOLYL)PROPANAMIDE] ({X2-CO}-[Phe(3-Me)][aThr][Hyp][Pip]A[Pro(4S-Me)]; ester 2-C)
MIC (S. aureus ATCC 29213; ATCC29213, MIC, read-out: Minimal Inhibitory Concentrations (μM) S. aureus ATCC 29213): 0.625 µM (≈ 0.525 µg/mL)
MIC (MRSA NRS70; MIC, read-out: Minimal Inhibitory Concentrations (μM) MRSA NRS70): 0.625 µM (≈ 0.525 µg/mL)
MIC (E. faecails; MIC, read-out: Minimal Inhibitory Concentrations (μM) E. faecails): 1.25 µM (≈ 1.05 µg/mL)
MIC (S. aureus USA 300; USA300, MIC, read-out: Minimal Inhibitory Concentrations (μM) S. aureus USA 300): 1.25 µM (≈ 1.05 µg/mL)
Minimal Inhibitory Concentrations (μM) S. aureus ΔClpP (S. aureus ΔClpP): 5 µM
EC50 (S. aureus ClpP (Sa-ClpP)): 450 ± 200 nM

Cc1cccc(C[C@H](NC(=O)Nc2ccc(Cl)cc2)C(=O)N[C@@H]2C(=O)N3CCC[C@H]3C(=O)N3CC(=O)NC[C@H]3C(=O)N[C@@H](C)C(=O)N3C[C@H](C)C[C@H]3C(=O)O[C@H]2C)c1 [Compound 75, (S)-2-(3-(4-CHLOROPHENYL)UREIDO)-3-(M-TOLYL)-N-((6AS,12S,13S,15AS,17R,21S,23AS)-13,17,21-TRIMETHYL-3,6,11,15,20,23-HEXAOXOOCTADECAHYDRO-2H,6H,11H,15H-PYRAZINO[2,1-I]DIPYRROLO[2,1-C:2′,1′-L][1]OXA[4,7,10,13]TETRAAZACYCLOHEXADECIN-12-YL)PROPANAMIDE] ({NH(4-Cl-phenyl)-CO}-[Phe(3-Me)][aThr]P[X4]A[Pro(4R-Me)]; ester 2-C)
MIC (S. aureus ATCC 29213; [1]): 20 µM (≈ 16.4 µg/mL)
MIC (MRSA NRS70; [2]): 20 µM (≈ 16.4 µg/mL)
MIC (E. faecails; [3]): > 20 µM
MIC (S. aureus USA 300; [4]): 10 µM (≈ 8.21 µg/mL)
Minimal Inhibitory Concentrations (μM) S. aureus ΔClpP (S. aureus ΔClpP): >20 µM
EC50 (S. aureus ClpP (Sa-ClpP)): 1210 ± 1000 nM

Cc1cccc(C[C@H](NC(=O)Nc2cccc(Cl)c2)C(=O)N[C@H]2COC(=O)[C@@H]3CCCN3C(=O)[C@H](C)NC(=O)[C@@H]3CCCCN3C(=O)[C@@H]3C[C@@H](O)CN3C2=O)c1 [Compound 57, (S)-2-(3-(3-CHLOROPHENYL)UREIDO)-N-((6S,8AS,14AS,16R,20S,23AS)-16-HYDROXY-6-METHYL-5,8,14,19,23-PENTAOXOOCTADECAHYDRO-1H,5H,14H,19H-PYRIDO[2,1-I]DIPYRROLO[2,1-C:2′,1′-L][1]OXA[4,7,10,13]TETRAAZACYCLOHEXADECIN-20-YL)-3-(M-TOLYL)PROPANAMIDE]
MIC (S. aureus ATCC 29213; [1]): 20 µM (≈ 15.9 µg/mL)
MIC (MRSA NRS70; [2]): 10 µM (≈ 7.94 µg/mL)
MIC (E. faecails; [3]): 10 µM (≈ 7.94 µg/mL)
MIC (S. aureus USA 300; [4]): 10 µM (≈ 7.94 µg/mL)
Minimal Inhibitory Concentrations (μM) S. aureus ΔClpP (S. aureus ΔClpP): >20 µM
EC50 (S. aureus ClpP (Sa-ClpP)): 1880 ± 2400 nM
